This passage reports T/C results from PubChem BioAssay AID330 (DTP/NCI, 2004).

The subject of this assay is P388 leukemia ip, CD2F1 mice, survival T/C. Nature of the assay: NCI In Vivo Anticancer Drug Screen. Data for tumor model P388 Leukemia (intraperitoneal) in CD2F1 (CDF1) mice. As to conditions: endpoint: median survival time, higher = longer survival. The method in brief:
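Mice carrying the transplanted tumor received test compound or vehicle. Survival was recorded in each group, and the value is the treated-group measurement divided by that of the vehicle-treated control group.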

[1] abbreviates: dose: 6.0 mg/kg/injection, schedule: Q01DX009 (ip), vehicle: saline.
Where [2] appears, read: dose: 100.0 mg/kg/injection, schedule: Q04DX003 (ip), vehicle: saline with Tween-80.
Setting [3] is: dose: 50.0 mg/kg/injection, schedule: Q01DX005 (ip), vehicle: Klucel (hydroxypropylcellulose) (HPC).
[4] abbreviates: dose: 100.0 mg/kg/injection, schedule: Q01DX005 (ip), vehicle: Klucel (hydroxypropylcellulose) (HPC).
[5] abbreviates: dose: 50.0 mg/kg/injection, schedule: Q01DX005 (ip), vehicle: saline with Tween-80.
[6] abbreviates: dose: 100.0 mg/kg/injection, schedule: Q01DX005 (ip), vehicle: saline with Tween-80.
Where [7] appears, read: dose: 200.0 mg/kg/injection, schedule: Q01DX005 (ip), vehicle: saline with Tween-80.
Setting [8] is: dose: 25.0 mg/kg/injection, schedule: Q01DX005 (ip), vehicle: Klucel (hydroxypropylcellulose) (HPC).
Where [9] appears, read: dose: 50.0 mg/kg/injection, schedule: Q01DX009 (ip), vehicle: saline with Tween-80.
Where [10] appears, read: dose: 100.0 mg/kg/injection, schedule: Q01DX009 (ip), vehicle: saline with Tween-80.

Where “and” joins values, the source holds several entries; their conditions need not be identical. Identical values can stand only once. Toxic doses and inconclusive results are not listed.

As to `O=P(NC1CCCC1)(N1CC1)N1CC1`, the T/C was 110 % of control (dose: 2.0 mg/kg/injection, schedule: Q04DX003 (ip), vehicle: saline); 154 % of control (dose: 2.66 mg/kg/injection, schedule: Q01DX009 (ip), vehicle: saline); 209 % of control (dose: 4.0 mg/kg/injection, schedule: Q01DX009 (ip), vehicle: saline); 120 % of control (dose: 4.0 mg/kg/injection, schedule: Q04DX003 (ip), vehicle: saline); 118 % of control under setting [1]; 200 % of control (dose: 8.0 mg/kg/injection, schedule: Q04DX003 (ip), vehicle: saline). Besides, the T/C (dose: 9.0 mg/kg/injection, schedule: Q01DX009 (ip), vehicle: saline) is 100 % of control.
Consider `Nc1nc2nn(Cc3ccc(Cl)c(Cl)c3)c(-c3ccc(Cl)c(Cl)c3)c2c(=O)[nH]1`, for which the T/C (dose: 100.0 mg/kg/injection, schedule: Q01DX001 (ip), vehicle: saline with Tween-80) is 91 % of control; the T/C (dose: 200.0 mg/kg/injection, schedule: Q01DX001 (ip), vehicle: saline with Tween-80) is 97 % of control; the T/C (dose: 400.0 mg/kg/injection, schedule: Q01DX001 (ip), vehicle: saline with Tween-80) is 88 % of control.
For `CCC(c1ccc(O)cc1)C(CC)c1ccc(OC)cc1` (stereo unspecified), the T/C reads like this: under setting [2], 104 % of control; (dose: 200.0 mg/kg/injection, schedule: Q04DX003 (ip), vehicle: saline with Tween-80) 86 % of control.
As to `CN1CCC(O)(C(=O)c2ccccc2)CC1`, the T/C reads like this: (dose: 100.0 mg/kg/injection, schedule: Q04DX002 (ip), vehicle: saline) 99 % of control and 104 % of control; (dose: 200.0 mg/kg/injection, schedule: Q04DX002 (ip), vehicle: saline) 103 % of control.
Consider `NC(=O)c1cn(CCO)nc1[N+](=O)[O-]`, for which the T/C (dose: 50.0 mg/kg/injection, schedule: Q01DX009 (ip), vehicle: saline) was 100 % of control; the T/C (dose: 100.0 mg/kg/injection, schedule: Q01DX009 (ip), vehicle: saline) was 100 % of control; the T/C (dose: 200.0 mg/kg/injection, schedule: Q01DX009 (ip), vehicle: saline) is 119 % of control.
On to `COC(=O)CCC(=O)C(C#N)c1ccc(Cl)c(Cl)c1` (stereo unspecified), for which the T/C (dose: 60.0 mg/kg/injection, schedule: Q01DX005 (ip), vehicle: saline with Tween-80) was 101 % of control and the T/C (dose: 120.0 mg/kg/injection, schedule: Q01DX005 (ip), vehicle: saline with Tween-80) is 101 % of control.
For `C=C1C(=O)OC2/C=C(\C)CC(O)/C=C(\C)CC(OC(=O)C3(CO)OC3C)C12` (stereo unspecified), the T/C reads like this: (dose: 25.0 mg/kg/injection, schedule: Q01DX001 (ip), vehicle: Klucel (hydroxypropylcellulose) (HPC)) 113 % of control; (dose: 50.0 mg/kg/injection, schedule: Q01DX001 (ip), vehicle: Klucel (hydroxypropylcellulose) (HPC)) 101 % of control; (dose: 100.0 mg/kg/injection, schedule: Q01DX001 (ip), vehicle: Klucel (hydroxypropylcellulose) (HPC)) 108 % of control.
As to `CCC1(CC)C(=O)NC(=O)[N]([Sn]([CH3])([CH3])[N]2C(=O)NC(=O)C(CC)(CC)C2=O)C1=O`, the T/C runs as follows: under setting [3], 112 % of control; under setting [4], 111 % of control.
For `O=C(O)c1nn(-c2ccccc2-c2n[nH]c(=O)[nH]c2=O)c(=O)[nH]c1=O`, the T/C reads like this: under setting [5], 101 % of control; under setting [6], 90 % of control; under setting [7], 95 % of control.
Turning to `C(=C\CSc1ccccn1)/CSc1ccccn1`, the T/C by setting is: (dose: 12.5 mg/kg/injection, schedule: Q01DX009 (ip), vehicle: Klucel (hydroxypropylcellulose) (HPC)) 107 % of control; (dose: 25.0 mg/kg/injection, schedule: Q01DX009 (ip), vehicle: Klucel (hydroxypropylcellulose) (HPC)) 99 % of control; (dose: 50.0 mg/kg/injection, schedule: Q01DX009 (ip), vehicle: Klucel (hydroxypropylcellulose) (HPC)) 90 % of control and 91 % of control; (dose: 200.0 mg/kg/injection, schedule: Q01DX009 (ip), vehicle: Klucel (hydroxypropylcellulose) (HPC)) 91 % of control.
Take `O=S(=O)(O)C1CC(S(=O)(=O)O)NC(S(=O)(=O)O)C1` (stereo unspecified): the T/C is 99 % of control (dose: 50.0 mg/kg/injection, schedule: Q01DX005 (ip), vehicle: saline); 98 % of control (dose: 100.0 mg/kg/injection, schedule: Q01DX005 (ip), vehicle: saline); 94 % of control (dose: 200.0 mg/kg/injection, schedule: Q01DX005 (ip), vehicle: saline).
In the case of `C=C(Cl)C(=NC(C)(C)C)Nc1ccccc1C`, the T/C by setting is: (dose: 1.56 mg/kg/injection, schedule: Q01DX005 (ip), vehicle: saline) 100 % of control; (dose: 3.12 mg/kg/injection, schedule: Q01DX005 (ip), vehicle: Klucel (hydroxypropylcellulose) (HPC)) 103 % of control; (dose: 3.12 mg/kg/injection, schedule: Q01DX005 (ip), vehicle: saline) 102 % of control; (dose: 6.25 mg/kg/injection, schedule: Q01DX005 (ip), vehicle: Klucel (hydroxypropylcellulose) (HPC)) 107 % of control and 117 % of control; (dose: 6.25 mg/kg/injection, schedule: Q01DX005 (ip), vehicle: saline) 109 % of control and 118 % of control; (dose: 12.5 mg/kg/injection, schedule: Q01DX005 (ip), vehicle: Klucel (hydroxypropylcellulose) (HPC)) 117 % of control. Besides, the T/C (dose: 12.5 mg/kg/injection, schedule: Q01DX005 (ip), vehicle: saline) was 108 % of control and the T/C under setting [8] was 121 % of control.
With `COc1cc2c(c(OC)c1OC)-c1c(cc3c(c1OC)OCO3)CC(C)C(C)(O)C2OC(=O)c1ccccc1` (stereo unspecified), the T/C is 104 % of control (dose: 11.25 mg/kg/injection, schedule: Q01DX009 (ip), vehicle: saline + alcohol); 104 % of control (dose: 22.5 mg/kg/injection, schedule: Q01DX009 (ip), vehicle: saline + alcohol); 95 % of control (dose: 45.0 mg/kg/injection, schedule: Q01DX009 (ip), vehicle: saline + alcohol); 97 % of control (dose: 90.0 mg/kg/injection, schedule: Q01DX009 (ip), vehicle: saline + alcohol).
Regarding `CC(=O)[O][Sn]([CH2]c1ccccc1)([CH2]c1ccccc1)[CH2]c1ccccc1`, the T/C was 115 % of control (dose: 0.75 mg/kg/injection, schedule: Q01DX009 (ip), vehicle: saline); 87 % of control (dose: 1.5 mg/kg/injection, schedule: Q01DX009 (ip), vehicle: saline); 105 % of control (dose: 3.0 mg/kg/injection, schedule: Q01DX009 (ip), vehicle: saline); 108 % of control under setting [1].
On to `COc1cc(C2c3cc4c(cc3C(=O)C(C)C2C)OCO4)ccc1O` (stereo unspecified), for which the T/C was 98 % of control under setting [8]; 98 % of control under setting [3]; 102 % of control under setting [4]; 86 % of control (dose: 150.0 mg/kg/injection, schedule: Q01DX005 (ip), vehicle: Klucel (hydroxypropylcellulose) (HPC)).
Regarding `COc1ccc2[nH]c3c(c2c1)-c1ncncc1CC3`, the T/C is, setting by setting: under setting [5], 100 % of control; under setting [6], 97 % of control; under setting [7], 106 % of control.
Regarding `C=Cc1ccccc1-c1ccccc1C(=O)OC`, the T/C (dose: 25.0 mg/kg/injection, schedule: Q04DX003 (ip), vehicle: saline with Tween-80) was 100 % of control; the T/C (dose: 50.0 mg/kg/injection, schedule: Q04DX003 (ip), vehicle: saline with Tween-80) is 101 % of control; the T/C under setting [2] was 99 % of control.
Turning to `O=C(O)c1cnc2cc(Cl)ccc2n1`, the T/C is 100 % of control (dose: 25.0 mg/kg/injection, schedule: Q01DX009 (ip), vehicle: saline with Tween-80); 100 % of control under setting [9]; 95 % of control under setting [10].
Turning to `C=CCC1CCC(=O)NC1=O` (stereo unspecified), the T/C is 102 % of control (dose: 50.0 mg/kg/injection, schedule: Q04DX002 (ip), vehicle: saline with Tween-80); 102 % of control (dose: 100.0 mg/kg/injection, schedule: Q04DX002 (ip), vehicle: saline with Tween-80); 100 % of control (dose: 200.0 mg/kg/injection, schedule: Q04DX002 (ip), vehicle: saline with Tween-80); 112 % of control (dose: 400.0 mg/kg/injection, schedule: Q04DX002 (ip), vehicle: saline with Tween-80).
On to `CC([NH-])C[NH-].[Br][Pt+2][Br]` (stereo unspecified), for which the T/C is 158 % of control (dose: 12.5 mg/kg/injection, schedule: Q04DX002 (ip), vehicle: saline with Tween-80) and 174 % of control (dose: 25.0 mg/kg/injection, schedule: Q04DX002 (ip), vehicle: saline with Tween-80).
Consider `Oc1ccc(O)c([P+](c2ccccc2)(c2ccccc2)c2ccccc2)c1`, for which the T/C reads like this: under setting [9], 111 % of control; under setting [10], 115 % of control.
